{
  "source": "patent US4465676A",
  "about": "“16α Halogen substituted 3,17β-dihydroxy steroidal estrogens” (priority 1980, dated 1984)",
  "key": {"estrogen receptors": {"tested_on": "estrogen receptors", "details": "ability to displace [3H]estradiol from receptor sites; cited from earlier work"}, "[1]": {"target": "T1, estrogen receptor (calf uterine cytosol) (Bos taurus, UniProt P49884)", "T1 construct": "Fresh calf uteri obtained from a slaughterhouse; from tissue; host or cells: calf uterus, 150,000 x g cytosol from lyophilized powder", "T1 sequence (P49884 1-596)": "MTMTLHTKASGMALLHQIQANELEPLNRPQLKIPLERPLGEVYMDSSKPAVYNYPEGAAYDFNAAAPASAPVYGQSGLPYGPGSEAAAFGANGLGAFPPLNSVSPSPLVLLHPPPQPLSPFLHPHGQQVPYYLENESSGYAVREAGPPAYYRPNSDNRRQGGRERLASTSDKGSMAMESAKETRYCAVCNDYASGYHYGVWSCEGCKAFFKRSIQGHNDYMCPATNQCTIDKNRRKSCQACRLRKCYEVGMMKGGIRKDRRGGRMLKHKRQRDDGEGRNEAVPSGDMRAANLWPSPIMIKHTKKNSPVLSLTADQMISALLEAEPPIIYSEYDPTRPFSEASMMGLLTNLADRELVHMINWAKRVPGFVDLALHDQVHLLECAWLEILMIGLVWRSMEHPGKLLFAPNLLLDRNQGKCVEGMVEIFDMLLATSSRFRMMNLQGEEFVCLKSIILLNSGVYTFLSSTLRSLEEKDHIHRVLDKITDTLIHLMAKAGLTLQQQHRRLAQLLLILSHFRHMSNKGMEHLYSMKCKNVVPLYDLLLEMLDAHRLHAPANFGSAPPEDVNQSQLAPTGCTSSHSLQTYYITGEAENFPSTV", "assay": "Competition for the estrogen receptor in calf uterine cytosol", "assay_type": "binding", "details": "for activity at 0.0005 µM: competitor 0.5 nM", "description": "Several compounds, at the two indicated concentrations, were allowed to compete with both labeled steroids for sites in calf uterine cytosol. Incubations were overnight at 4° C., and bound and free steroids were separated with dextran-coated charcoal."}, "[2]": {"tested_on": "antisera against bovine serum albumin complexes with E2-17-hemisuccinate, E2-6-carboxymethyloxime and E2-3-carboxymethyl ether", "assay": "Radioimmunoassay with antisteroid antisera", "assay_type": "binding, rabbits", "description": "Antisteroid antisera were produced in rabbits immunized with steroid-bovineserum albumin conjugates.\nVarying amounts of E2 dissolved in methanol were added to test tubes and evaporated to dryness. The residues were dissolved in 100 μl of antiserum that had been diluted in 0.1M phosphate, pH 7.0/0.015M sodium azide/0.15M NaCl/0.1% gelatin (PBS buffer). […] Upon completion of the incubation, 100 μl of 0.5% gelatin in PBS buffer was added, followed by 1 ml of PBS buffer containing 2.5 mg of dextran-coated charcoal. The mixture was agitated in a vortex mixer and, after 10 minutes at 4° C., it was centrifuged at 5000×g for 10 minutes at 4° C. Aliquots (0.9 ml) were assayed for radioactivity.\nThe data also indicate that very sensitive radioimmunoassays could be developed with all three antisera."}, "[3]": {"tested_on": "estrogen-dependent human breast tumor cell line (MCF-7)", "assay": "Induction of growth of MCF-7 cells in vitro", "assay_type": "cell-based", "description": "This difference in potency, can be explained either by differences in the peripheral metabolism of the two compounds or by differences in events that occur after binding to the cytosolic receptor has taken place. At this time we believe the former explanation to be correct because the two estrogens are equipotent in vitro in inducing growth of an estrogen-dependent human breast tumor cell line (MCF-7)."}, "[4]": {"target": "T2, calf uterine estrogen receptor (Bos taurus, UniProt P49884)", "T2 construct": "Fresh calf uteri obtained from a slaughterhouse; from tissue; host or cells: calf uterus, 150,000 x g cytosol from lyophilized powder", "T2 sequence (P49884 1-596)": "T1 sequence (P49884 1-596)", "assay": "Saturation and Scatchard analysis of the estrogen receptor from calf uterus", "assay_type": "binding", "details": "Scatchard analysis, calf uterine cytosol", "description": "Fresh calf uteri obtained from a slaughterhouse were brought to the laboratory on ice, immediately trimmed of fat, and cut into small pieces; the pieces were frozen in liquid nitrogen and pulverized. The pulverized frozen tissue was lyophilized, and the desiccated powder was stored under vacuum in sealed vials at -80° C. The uterine powders were usually used within 1 month of pulverization. When needed, the powders were suspended in 0.1M Tris-HCl, pH 7.4/2.5 mM EDTA/5 mM dithiotreithol (TED buffer) at 2.5 mg/ml and homogenized at 0° C. in a Polytron homogenizer with two or three pulses at 15 seconds each. The homogenate was then centrifuged at 150,000×g for 60 minutes and the resulting supernatant (cytosol), containing approximately 1 mg of protein per ml, was used for binding studies on the estrogen receptor.\nAfter the solvent was removed under a stream of N2, 250 μl of cytosol was added and the samples were incubated at 0°-2° C. overnight. The following morning, 250 μl of a 0.5% suspension of dextran-coated charcoal in TED buffer was added to the tubes which then were mixed and centrifuged at 5000×g for 10 minutes. The supernatant was assayed to determine bound radioactivity.\nA saturation analysis of the estrogen receptor from calf uterus was conducted. […] Nonspecific binding, specific binding and total binding were determined in parallel incubations containing 0.7 μM DES.\nA Scatchard analysis of the estrogen receptor from calf uterus was also conducted."}, "[5]": {"tested_on": "21-day-old female rats (uteri)", "assay": "Estrogen bioassay, uterine weight in 21-day-old female rats", "assay_type": "in vivo", "details": "daily s.c. injections for 3 days, uterine weight on fourth day", "description": "Estrogenic potency was assayed in 21-day-old female rats. […] On the fourth day, the uteri were removed, trimmed, blotted, and weighed."}, "[6]": {"assay": "External localization of tracer in an ovariectomized squirrel monkey", "assay_type": "in vivo, squirrel monkey (Saimari Sciureus)", "description": "The tracer ^131 I-E2 was synthesized as described in Example 6 with the exception that Na ^131 I was used for the exchange. The subject, a squirrel monkey (Saimari Sciureus), weighing 1.5 kilograms, was ovariectomized 2 weeks before the start of the experiment and an estradiol containing Silastic implant was placed subcutaneously in […] back. The implant was removed 24 hours before the intravenous injection of 200 μCi of the tracer dissolved in saline. […] Within 1 to 2 hours radioactivity could be detected in the suprapubic region, but when the bladder was aspirated and washed, 3.8 μCi of radioactivity was found in the urine."}, "[7]": {"details": "read-out: B/B0 × 10^2, tracer ^3 H-E2 (0.74 nM)"}, "[8]": {"details": "read-out: B/B0 × 10^2, tracer ^3 H-E2 (0.74 nM), competitor 5.0 nM"}, "[9]": {"details": "read-out: B/B0 × 10^2, tracer ^125 I-E2 (0.22 nM)"}, "[10]": {"details": "read-out: B/B0 × 10^2, tracer ^125 I-E2 (0.22 nM), competitor 5 nM"}},
  "note": "Like-named read-outs stand apart in the source and are kept apart here.",
  "data": [
    {"smiles": "C[C@]12CC[C@@H]3c4ccc(O)cc4C(I)=C[C@H]3[C@@H]1CC[C@@H]2O", "note": "[6-iodoestra-1,3,5(10), 6-tetraene-3,17β-diol]", "values": [
      {"measurement": "relative binding affinity", "setting": "estrogen receptors", "result": 0.49}
    ]},
    {"smiles": "C[C@]12CC[C@@H]3c4ccc(O)cc4CC[C@H]3[C@@H]1C[C@H](I)[C@@H]2O", "note": "[16β-iodoestra-1,3,5(10)-triene-3-17β-diol]", "values": [
      {"measurement": "relative binding affinity", "setting": "estrogen receptors", "result": 0.57}
    ]},
    {"smiles": "C[C@]12C[C@H](O)[C@H]3[C@@H](CCC4=CC(=O)CC[C@@]43C)[C@@H]1CC[C@@H]2C(=O)CO", "note": "[Corticosterone]", "values": [
      {"measurement": "activity at 0.0005 µM", "setting": "[1]; tracer ^3 H-E2 (0.74 nM), read-out: B/B0 × 10^2", "result": 103, "unit": "%"},
      {"measurement": "activity at 0.005 µM", "setting": "[1]; tracer ^3 H-E2 (0.74 nM), competitor 5.0 nM, read-out: B/B0 × 10^2", "result": 97, "unit": "%"},
      {"measurement": "activity at 0.0005 µM", "setting": "[1]; tracer ^125 I-E2 (0.22 nM), read-out: B/B0 × 10^2", "result": 100, "unit": "%"},
      {"measurement": "activity at 0.005 µM", "setting": "[1]; tracer ^125 I-E2 (0.22 nM), competitor 5 nM, read-out: B/B0 × 10^2", "result": 93, "unit": "%"}
    ]},
    {"smiles": "C[C@]12CC[C@H](O)CC1=CC[C@@H]1[C@@H]2CC[C@]2(C)C(=O)CC[C@@H]12", "note": "[Dehydroisoandrosterone]", "values": [
      {"measurement": "activity at 0.0005 µM", "setting": "[1]; [7]", "result": 98, "unit": "%"},
      {"measurement": "activity at 0.005 µM", "setting": "[1]; [8]", "result": 108, "unit": "%"},
      {"measurement": "activity at 0.0005 µM", "setting": "[1]; [9]", "result": 104, "unit": "%"},
      {"measurement": "activity at 0.005 µM", "setting": "[1]; [10]", "result": 107, "unit": "%"}
    ]},
    {"smiles": "C[C@]12CC[C@@H]3c4ccc(O)cc4CC[C@H]3[C@@H]1CC[C@@H]2O", "note": "[E2, estra-1,3,5(10)-triene-3,17β-diol, reference compound]", "values": [
      {"measurement": "tracer displaced from the antibody", "setting": "[2]; anti-E2-6-carboxymethyloxime-albumin, 1 pg of E2", "result": "~50", "unit": "%"},
      {"measurement": "inducing growth of MCF-7", "setting": "[3]", "result": "equipotent"}
    ]},
    {"smiles": "C[C@]12CC[C@@H]3c4ccc(O)cc4CC[C@H]3[C@@H]1C[C@@H](I)[C@@H]2O", "note": "[I-E2, 16α-iodoestra-1,3,5,(10)-triene-3,17β-diol]", "values": [
      {"measurement": "binding capacity", "setting": "[4]", "result": "411 fmol/mg of protein"},
      {"measurement": "Kd", "setting": "[4]; read-out: Ka (association constant) (converted)", "result": 0.141, "unit": "nM"},
      {"measurement": "activity at 0.0005 µM", "setting": "[1]; [7]", "result": 69, "unit": "%"},
      {"measurement": "activity at 0.005 µM", "setting": "[1]; [8]", "result": 12, "unit": "%"},
      {"measurement": "activity at 0.0005 µM", "setting": "[1]; [9]", "result": 35, "unit": "%"},
      {"measurement": "activity at 0.005 µM", "setting": "[1]; [10]", "result": 2, "unit": "%"},
      {"measurement": "competing for the estrogen receptor (in words)", "setting": "[1]; regardless of which radioactive ligand was used", "result": "about equipotent"},
      {"measurement": "estrogenic potency in vivo", "setting": "[5]", "result": "estrogenic in vivo, albeit not as potent as E2 itself"},
      {"measurement": "inducing growth of MCF-7", "setting": "[3]", "result": "equipotent"}
    ]},
    {"smiles": "CC(=O)[C@H]1CC[C@H]2[C@@H]3CCC4=CC(=O)CC[C@]4(C)[C@H]3CC[C@]12C", "note": "[Progesterone]", "values": [
      {"measurement": "activity at 0.0005 µM", "setting": "[1]; [7]", "result": 97, "unit": "%"},
      {"measurement": "activity at 0.005 µM", "setting": "[1]; [8]", "result": 102, "unit": "%"},
      {"measurement": "activity at 0.0005 µM", "setting": "[1]; [9]", "result": 98, "unit": "%"},
      {"measurement": "activity at 0.005 µM", "setting": "[1]; [10]", "result": 102, "unit": "%"}
    ]},
    {"smiles": "[3H]C1c2cc(O)ccc2[C@H]2CC[C@]3(C)[C@@H](O)CC[C@H]3[C@@H]2C1[3H]", "note": "(stereo partly drawn) [^3 H-E2]", "values": [
      {"measurement": "binding of tracer to antisera", "setting": "[2]; three antisera, various dilutions", "result": "bound to all three antisera"}
    ]},
    {"smiles": "C[C@]12CC[C@@H]3c4ccc(O)cc4CC[C@H]3[C@@H]1C[C@@H]([131I])[C@@H]2O", "note": "[^131 I-E2]", "values": [
      {"measurement": "imaging of the uterus", "setting": "[6]; Anger Camera", "result": "uterus was then imaged"},
      {"measurement": "radioactivity found in the urine", "setting": "[6]; bladder aspirated and washed, i.v. 200 μCi", "result": 3.8, "unit": "μCi"},
      {"measurement": "time until radioactivity detected in the suprapubic region", "setting": "[6]; i.v. 200 μCi", "result": "1 to 2", "unit": "h"},
      {"measurement": "uptake of the tracer in the liver", "setting": "[6]; i.v. 200 μCi, pin-hole collimator scan", "result": "could be seen immediately"}
    ]}
  ]
}
